Test results taken from patent publication US20080152641A1, “Inhibitors of Siderophore Biosynthesis in Fungi” (Autria Wirtschaftsservice, priority 2004, published 2008).
Square brackets hold non-standard residues; d marks the D form. Peptide text beside a SMILES is read from it. Orn(N5-OH,N5-Ac) = CC(=O)N(O)CCC[C@H](N)C(=O)O

Columns and labels:
Assay type in all cases: cell-based, Aspergillus fumigatus
ΔsidACEA17 [1] = assay: Conidia production of ΔsidACEA17; details: without supplement 99% decrease
Description: (§1) FIG. 3: A. Growth phenotypes of wild type and mutant strains. […] 10^4 conidia of the respective strain were point-inoculated on AMM plates containing the respective iron source, and incubated for 48 h at 37° C. Blood agar was AMM containing 5% sheep blood.
(§2) To elucidate the role of sidA a gene deletion mutant from CEA17 by replacement with pyrG was constructed (Weidner (1998), loc. cit.).

ΔsidA/ΔftrACEA17 = assay: Growth of double mutant ΔsidA/ΔftrACEA17 on different iron sources; details: for growth promotion of ΔsidA/ΔftrACEA17: high amounts; for growth of ΔsidA/ΔftrACEA17 on host iron compound as sole iron source: 10 μM as the sole iron source
Description: 10^4 conidia of the respective strain were point-inoculated on AMM plates containing the respective iron source, and incubated for 48 h at 37° C. Blood agar was AMM containing 5% sheep blood.
To analyze the potential role of FtrA in iron uptake of A. fumigatus we deleted the encoding gene in ΔsidACEA17 by replacement with the hygromycin resistance (hph) marker (Punt (1987), loc. cit.).

[2] = system: ΔAf-sidA, OMO-deficient A. fumigatus strain; assay: Radial growth of siderophore-negative ΔAf-sidA on Aspergillus minimal medium plates
Excerpt: As is described in the appended Examples below, to elucidate the function of Af-sidA, a deletion mutant for this gene was constructed. In the generated mutant allele of ΔAf-sidA, the entire coding region, 279 bp downstream and 137 bp upstream region of the gene was replaced by the hygromycine resistance (hph) marker. […] Consistent with reductive iron assimilation being responsible for the residual growth of ΔAf-sidA, the use of copper-deficient media or the addition of the copper-specific chelator bathocuproine disulfonic acid in a concentration of 30 μM decreased the radial growth rate of ΔAf-sidA 46% and 25% compared to the wt. The growth of ΔAf-sidA was increased to 84% and 99% by supplementation with 1.5 mM FeSO4 and 10 μM ferricrocin, respectively.
as §1

Δat2 = assay: Radial growth of Δat2 in the presence of BPS; details: iron depleted conditions, BPS 200 μM, radial growth at 48 h
Description: as §1
(§3) FIG. 12: Growth phenotypes of wild type and Δat1, ΔsidD and Δat2 mutant strains. Growth assays were performed during iron replete conditions (+Fe, 10 μM FeSO4), iron depleted conditions (−Fe), iron depleted conditions in the presence of bathophenantroline-disulfonate (BPS, 200 μM) and on blood agar (blood) as described in FIG. 3, radial growth was scored at 48 h.
(§4) Bathophenantroline-disulfonic acid is an inhibitor of the reductive iron assimilatory system and the iron contained in blood agar cannot be readily used by the reductive iron assimilatory system.

ΔsidD = assay: Radial growth of ΔsidD in the presence of BPS; details: iron depleted conditions, BPS 200 μM, radial growth at 48 h
Description: as §1, §3, §4

ΔsidACEA17 [3] = assay: Growth sensitivity of ΔsidACEA17 to ferrous iron chelator
Description: as §1, §2

Δat1 = assay: Radial growth of Δat1 in the presence of BPS; details: iron depleted conditions, BPS 200 μM, radial growth at 48 h
Description: as §1, §3, §4

iron chloride
conidia production of ΔsidACEA17 (ΔsidACEA17 [1]; supplementation with 1.5 mM): 35%

[Fe+2] [ferrous iron]
growth promotion of ΔsidA/ΔftrACEA17 (ΔsidA/ΔftrACEA17): slight growth promotion

Cc1cc(-c2ccc(S(=O)(=O)O)cc2)c2ccc3c(-c4ccc(S(=O)(=O)O)cc4)cc(C)nc3c2n1 [bathocuproine disulfonic acid]
radial growth rate of ΔAf-sidA compared to the wt ([2]; addition of chelator at 30 μM): 25%

hemin
growth of ΔsidA/ΔftrACEA17 on host iron compound as sole iron source (ΔsidA/ΔftrACEA17): failed to grow

CC(=O)N([O-])CCC[C@@H]1NC(=O)CNC(=O)[C@H](CO)NC(=O)CNC(=O)[C@H](CCCN([O-])C(C)=O)NC(=O)[C@H](CCCN([O-])C(C)=O)NC1=O.[Fe+3] [ferricrocin] (cyclo(GSG[Orn(N5-OH,N5-Ac)][Orn(N5-OH,N5-Ac)][Orn(N5-OH,N5-Ac)]))
growth of ΔsidA/ΔftrACEA17 with siderophore in growth medium (ΔsidA/ΔftrACEA17): unable to grow unless the growth medium contained ferricrocin
antagonism of growth inhibition by BPS and blood (FIG. 7) [2]: antagonist action
growth of ΔAf-sidA compared to the wt ([2]; supplementation with 10 μM): 99%
conidia production of ΔsidACEA17 (ΔsidACEA17 [1]; supplementation with 10 μM): 125%

holotransferrin: host iron compound tested as sole iron source
growth of ΔsidA/ΔftrACEA17 on host iron compound as sole iron source (ΔsidA/ΔftrACEA17): failed to grow

[Cl][Fe]([Cl])[Cl] [ferric iron]
growth promotion of ΔsidA/ΔftrACEA17 (ΔsidA/ΔftrACEA17): not

O=S(=O)([O-])[O-].[Fe+2] [FeSO4]
growth of ΔAf-sidA compared to the wt ([2]; supplementation with 1.5 mM): 84%
conidia production of ΔsidACEA17 (ΔsidACEA17 [1]; supplementation with 1.5 mM): 35%

O=S(=O)(O)c1ccc(-c2ccnc3c2ccc2c(-c4ccc(S(=O)(=O)O)cc4)ccnc23)cc1 [bathophenantroline disulfonate, bathophenanthroline disulfonic acid]
growth rate of Δat2 (Δat2): wild type growth rate
growth rate of ΔsidD (ΔsidD): decreased growth rate
sensitivity of ΔsidACEA17 to chelator (ΔsidACEA17 [3]): increased sensitivity
growth of siderophore negative A fumigatus (FIG. 7) [2]: Growth inhibition
growth rate of Δat1 (Δat1): decreased growth rate
